IC50 data for twelve compounds are collected here from US20240398811A1, “PRC2 INHIBITORS FOR USE IN TREATING BLOOD DISORDERS” (ORIC Pharmaceuticals, Inc., priority 2021, published 2024).

This assay deals with purified human, His-tagged PRC2 complex (Homo sapiens (Human), UniProt O75530). In words: Hot Spot HMT assay, inhibition of PRC2 enzymatic activity. The assay is classed as biochemical. The note with it: 10 nM PRC2 complex, 1 μM 3H-SAM, core histone H3, 10-point dose-response. A digest of the protocol: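 Five-subunit PRC2 complex (EZH2, EED, SUZ12, AEBP2, RbAp48; 10 nM) preincubated 20 min at 30° C with compound (top 1.0 μM) and 0.05 mg/ml core histone H3 in Tris-HCl, 1% DMSO. Started with 1 μM [3H]SAM, 1 hr at 30° C; tritiated H3 measured by filter binding and scintillation.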
purified human, His-tagged PRC2 complex, sequence (O75530 whole entry): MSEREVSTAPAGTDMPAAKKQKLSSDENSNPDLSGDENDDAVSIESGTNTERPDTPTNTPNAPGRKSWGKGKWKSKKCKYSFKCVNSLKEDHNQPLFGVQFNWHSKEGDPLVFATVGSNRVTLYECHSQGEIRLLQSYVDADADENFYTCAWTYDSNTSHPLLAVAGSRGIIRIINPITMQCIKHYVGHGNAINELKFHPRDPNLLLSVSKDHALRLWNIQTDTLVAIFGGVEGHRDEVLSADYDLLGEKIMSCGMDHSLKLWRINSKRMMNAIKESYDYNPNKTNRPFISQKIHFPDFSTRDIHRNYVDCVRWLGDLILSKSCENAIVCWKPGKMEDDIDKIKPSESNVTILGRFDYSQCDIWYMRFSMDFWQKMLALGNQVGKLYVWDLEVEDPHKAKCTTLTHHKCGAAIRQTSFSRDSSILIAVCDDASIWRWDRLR
purified human, His-tagged PRC2 complex, sequence (Q15910 whole entry partner): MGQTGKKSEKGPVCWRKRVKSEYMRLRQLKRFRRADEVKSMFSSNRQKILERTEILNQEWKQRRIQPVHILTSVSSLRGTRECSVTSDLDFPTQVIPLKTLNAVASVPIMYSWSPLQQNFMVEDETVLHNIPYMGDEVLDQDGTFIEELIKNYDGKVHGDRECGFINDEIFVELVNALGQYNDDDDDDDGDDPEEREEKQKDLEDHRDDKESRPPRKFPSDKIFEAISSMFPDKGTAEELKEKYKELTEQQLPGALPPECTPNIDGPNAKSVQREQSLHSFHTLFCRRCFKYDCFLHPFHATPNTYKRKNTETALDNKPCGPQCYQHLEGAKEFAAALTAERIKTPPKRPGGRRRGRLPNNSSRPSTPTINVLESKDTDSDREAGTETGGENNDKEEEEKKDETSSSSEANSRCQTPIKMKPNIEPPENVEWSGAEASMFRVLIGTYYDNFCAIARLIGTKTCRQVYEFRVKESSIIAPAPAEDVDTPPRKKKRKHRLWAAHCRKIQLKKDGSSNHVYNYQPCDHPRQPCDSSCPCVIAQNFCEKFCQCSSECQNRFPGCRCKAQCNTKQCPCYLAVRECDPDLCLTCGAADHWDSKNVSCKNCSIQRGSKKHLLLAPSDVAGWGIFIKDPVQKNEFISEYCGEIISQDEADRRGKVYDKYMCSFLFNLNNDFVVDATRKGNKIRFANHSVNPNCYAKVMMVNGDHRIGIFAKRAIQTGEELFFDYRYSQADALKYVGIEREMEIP
purified human, His-tagged PRC2 complex, sequence (Q15022 whole entry partner): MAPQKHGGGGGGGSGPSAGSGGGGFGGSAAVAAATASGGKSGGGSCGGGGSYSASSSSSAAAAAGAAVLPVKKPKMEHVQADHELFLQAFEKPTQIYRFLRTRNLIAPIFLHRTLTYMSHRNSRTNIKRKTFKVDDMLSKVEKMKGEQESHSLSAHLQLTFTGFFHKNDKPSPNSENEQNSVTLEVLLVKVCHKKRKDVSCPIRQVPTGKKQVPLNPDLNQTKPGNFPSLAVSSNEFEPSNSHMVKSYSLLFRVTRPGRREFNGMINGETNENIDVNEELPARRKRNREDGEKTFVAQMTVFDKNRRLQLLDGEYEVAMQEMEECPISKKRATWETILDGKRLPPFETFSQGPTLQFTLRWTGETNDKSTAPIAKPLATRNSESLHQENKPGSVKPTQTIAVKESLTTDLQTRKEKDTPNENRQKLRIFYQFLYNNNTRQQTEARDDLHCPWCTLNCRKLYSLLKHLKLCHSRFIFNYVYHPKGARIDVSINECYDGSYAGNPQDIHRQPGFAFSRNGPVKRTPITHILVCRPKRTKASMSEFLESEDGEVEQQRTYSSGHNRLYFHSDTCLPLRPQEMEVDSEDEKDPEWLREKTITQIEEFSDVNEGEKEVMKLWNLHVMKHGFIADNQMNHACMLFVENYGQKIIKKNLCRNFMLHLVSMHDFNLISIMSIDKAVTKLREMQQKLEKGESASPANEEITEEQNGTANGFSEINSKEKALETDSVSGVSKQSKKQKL
purified human, His-tagged PRC2 complex, sequence (Q6ZN18 whole entry partner): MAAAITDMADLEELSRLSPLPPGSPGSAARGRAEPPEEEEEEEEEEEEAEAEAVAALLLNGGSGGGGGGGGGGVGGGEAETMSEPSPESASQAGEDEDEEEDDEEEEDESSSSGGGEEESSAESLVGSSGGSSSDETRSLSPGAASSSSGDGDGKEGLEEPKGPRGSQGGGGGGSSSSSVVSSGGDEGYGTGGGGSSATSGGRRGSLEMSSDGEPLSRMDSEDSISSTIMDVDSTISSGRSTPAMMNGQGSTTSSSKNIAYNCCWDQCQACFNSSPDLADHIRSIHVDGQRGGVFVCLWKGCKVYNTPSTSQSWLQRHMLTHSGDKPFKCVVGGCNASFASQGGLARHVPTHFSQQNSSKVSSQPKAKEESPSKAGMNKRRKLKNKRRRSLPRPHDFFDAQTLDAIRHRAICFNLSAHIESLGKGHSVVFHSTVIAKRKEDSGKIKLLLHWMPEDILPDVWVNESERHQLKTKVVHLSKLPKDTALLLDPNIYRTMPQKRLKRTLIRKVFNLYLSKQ
purified human, His-tagged PRC2 complex, sequence (Q09028 whole entry partner): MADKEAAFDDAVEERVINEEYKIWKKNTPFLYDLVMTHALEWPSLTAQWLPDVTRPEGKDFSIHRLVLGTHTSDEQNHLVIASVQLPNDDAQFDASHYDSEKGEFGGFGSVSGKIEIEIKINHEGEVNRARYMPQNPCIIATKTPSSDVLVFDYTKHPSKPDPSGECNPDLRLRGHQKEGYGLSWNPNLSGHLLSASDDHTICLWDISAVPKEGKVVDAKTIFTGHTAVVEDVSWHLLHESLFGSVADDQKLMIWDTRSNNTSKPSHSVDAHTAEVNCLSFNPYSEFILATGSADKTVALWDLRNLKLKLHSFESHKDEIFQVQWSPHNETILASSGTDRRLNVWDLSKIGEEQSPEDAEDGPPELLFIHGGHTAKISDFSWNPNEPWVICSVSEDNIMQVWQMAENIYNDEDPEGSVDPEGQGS
The IC50 is the point on the concentration scale where inhibition reaches its midpoint. Low readings indicate greater potency in that assay, high ones weaker potency in that assay. `CN(C)CCCn1cc(-c2cnc(NCc3c(F)ccc4c3CCO4)n3cc(C#N)nc23)cn1` [Example 103, 8-(1-(3-(dimethylamino)propyl)-1H-pyrazol-4-yl)-5-(((5-fluoro-2,3-dihydrobenzofuran-4-yl)methyl)amino)imidazo[1,2-c]pyrimidine-2-carbonitrile] had an IC50 of 100 to 500 nM.
In turn, `Cc1n[nH]c(C)c1-c1cnc(NCc2c(F)ccc3c2CCO3)n2cc(C#N)nc12` [Example 104, 8-(3,5-dimethyl-1H-pyrazol-4-yl)-5-(((5-fluoro-2,3-dihydrobenzofuran-4-yl)methyl)amino)imidazo[1,2-c]pyrimidine-2-carbonitrile] registered an IC50 greater than 500 nM.
With `Cc1ncccc1-c1cnc(NCc2c(F)ccc3c2CCO3)n2cc(C#N)nc12` [Example 105, 5-(((5-fluoro-2,3-dihydrobenzofuran-4-yl)methyl)amino)-8-(2-methylpyridin-3-yl)imidazo[1,2-c]pyrimidine-2-carbonitrile], the IC50 was less than 100 nM.
The compound `N#Cc1cn2c(NCc3c(F)ccc4c3CCO4)ncc(-c3cnn(C4COC4)c3)c2n1` [Example 106, 5-(((5-fluoro-2,3-dihydrobenzofuran-4-yl)methyl)amino)-8-(1-(oxetan-3-yl)-1H-pyrazol-4-yl)imidazo[1,2-c]pyrimidine-2-carbonitrile] came in with an IC50 of 100 to 500 nM.
The figure for `N#Cc1cn2c(NCc3c(F)ccc4c3CCO4)ncc(-c3cnn(C4CCOC4)c3)c2n1` (stereo not drawn) [Example 107, 5-(((5-fluoro-2,3-dihydrobenzofuran-4-yl)methyl)amino)-8-(1-(tetrahydrofuran-3-yl)-1H-pyrazol-4-yl)imidazo[1,2-c]pyrimidine-2-carbonitrile] is 100 to 500 nM; for `N#Cc1cn2c(NCc3c(F)ccc4c3CCO4)ncc(-c3cnn(CC(F)(F)F)c3)c2n1` [Example 108, 5-(((5-fluoro-2,3-dihydrobenzofuran-4-yl)methyl)amino)-8-(1-(2,2,2-trifluoroethyl)-1H-pyrazol-4-yl)imidazo[1,2-c]pyrimidine-2-carbonitrile] it is less than 100 nM.
On to `N#Cc1cn2c(NCc3c(F)ccc4c3CCO4)ncc(-c3cnccc3Cl)c2n1` [Example 109, 8-(4-chloropyridin-3-yl)-5-(((5-fluoro-2,3-dihydrobenzofuran-4-yl)methyl)amino)imidazo[1,2-c]pyrimidine-2-carbonitrile], for which the half-maximal inhibitory concentration (IC50) was less than 100 nM.
Compound `Cc1ncncc1-c1cnc(NCc2c(F)ccc3c2CCO3)n2cc(C#N)nc12` [Example 110, 5-(((5-fluoro-2,3-dihydrobenzofuran-4-yl)methyl)amino)-8-(4-methylpyrimidin-5-yl)imidazo[1,2-c]pyrimidine-2-carbonitrile] returned an IC50 of less than 100 nM.
With `Cn1nc(C(F)(F)F)cc1-c1cnc(NCc2c(F)ccc3c2CCO3)n2cc(C#N)nc12` [Example 111, 5-(((5-fluoro-2,3-dihydrobenzofuran-4-yl)methyl)amino)-8-(1-methyl-3-(trifluoromethyl)-1H-pyrazol-5-yl)imidazo[1,2-c]pyrimidine-2-carbonitrile] the figure was less than 100 nM; with `CN(C)Cc1ccc(-c2cnc(NCc3c(F)ccc4c3CCO4)n3cc(C#N)nc23)cc1` [Example 112, 8-(4-((dimethylamino)methyl)phenyl)-5-(((5-fluoro-2,3-dihydrobenzofuran-4-yl)methyl)amino)imidazo[1,2-c]pyrimidine-2-carbonitrile], less than 100 nM.
With `COc1cc(-c2cnc(NCc3c(F)ccc4c3CCO4)n3cc(C#N)nc23)ccn1` [Example 113, 5-(((5-fluoro-2,3-dihydrobenzofuran-4-yl)methyl)amino)-8-(2-methoxypyridin-4-yl)imidazo[1,2-c]pyrimidine-2-carbonitrile], the IC50 was less than 100 nM.
In turn, `Cn1nccc1-c1cnc(NCc2c(F)ccc3c2CCO3)n2cc(C#N)nc12` [Example 114, 5-(((5-fluoro-2,3-dihydrobenzofuran-4-yl)methyl)amino)-8-(1-methyl-1H-pyrazol-5-yl)imidazo[1,2-c]pyrimidine-2-carbonitrile] gave an IC50 of less than 100 nM.
